Assay results: ChEMBL document CHEMBL1151241, “Sesquiterpenes and flavonol glycosides from Zingiber aromaticum and their CYP3A4 and CYP2D6 inhibitory activities” (J Nat Prod, 2004)

Legend:
Cytochrome P450 3A4 = Cytochrome P450 3A4 (Homo sapiens, UniProt P08684); experiment: Inhibition of human CYP3A4 by radiometric assay; assay type: ADME
Cytochrome P450 2D6 = Cytochrome P450 2D6 (Homo sapiens, UniProt P10635); experiment: Inhibition of human CYP2D6 by radiometric assay; assay type: ADME
Sequence of Cytochrome P450 2D6 (P10635 whole entry): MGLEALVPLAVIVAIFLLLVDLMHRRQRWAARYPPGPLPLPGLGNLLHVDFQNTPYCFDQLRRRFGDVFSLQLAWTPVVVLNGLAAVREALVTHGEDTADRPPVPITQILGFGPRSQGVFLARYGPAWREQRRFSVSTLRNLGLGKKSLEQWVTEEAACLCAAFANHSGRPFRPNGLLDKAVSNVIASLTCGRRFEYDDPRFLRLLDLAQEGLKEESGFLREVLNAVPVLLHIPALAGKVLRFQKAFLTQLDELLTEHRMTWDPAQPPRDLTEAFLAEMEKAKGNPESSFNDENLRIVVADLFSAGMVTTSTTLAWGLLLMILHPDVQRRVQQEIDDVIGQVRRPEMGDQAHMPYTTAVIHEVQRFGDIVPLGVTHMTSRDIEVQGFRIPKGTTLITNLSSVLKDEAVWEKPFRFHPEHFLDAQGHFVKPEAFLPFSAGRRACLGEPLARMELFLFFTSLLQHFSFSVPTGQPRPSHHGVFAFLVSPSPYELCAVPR

Sequence of Cytochrome P450 3A4 (P08684 whole entry): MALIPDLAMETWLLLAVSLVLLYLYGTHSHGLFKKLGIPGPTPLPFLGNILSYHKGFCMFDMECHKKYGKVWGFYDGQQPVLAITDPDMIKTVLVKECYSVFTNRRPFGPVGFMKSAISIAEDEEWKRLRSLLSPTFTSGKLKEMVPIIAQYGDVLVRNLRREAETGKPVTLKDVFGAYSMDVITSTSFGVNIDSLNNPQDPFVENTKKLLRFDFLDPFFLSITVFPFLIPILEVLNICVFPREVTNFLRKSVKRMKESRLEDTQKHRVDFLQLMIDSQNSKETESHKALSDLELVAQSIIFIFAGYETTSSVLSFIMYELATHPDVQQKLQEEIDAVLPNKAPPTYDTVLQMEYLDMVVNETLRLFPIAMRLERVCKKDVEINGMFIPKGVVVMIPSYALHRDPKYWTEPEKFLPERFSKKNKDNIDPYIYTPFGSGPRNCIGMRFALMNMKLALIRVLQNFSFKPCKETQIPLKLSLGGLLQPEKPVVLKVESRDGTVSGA

Row | Structure (SMILES) | IC50 (Cytochrome P450 3A4) | IC50 (Cytochrome P450 2D6)
1 | CC(=O)O[C@@H]1[C@@H](OC(C)=O)[C@@H](O)[C@H](Oc2c(-c3ccc(O)cc3)oc3cc(O)cc(O)c3c2=O)O[C@H]1C | 20.6 µM | 50.5 µM
2 | C/C1=C\CC(C)(C)/C=C/C(=O)/C(C)=C/[C@H](O)C1 | 35.5 µM | > 100 µM
3 | C/C1=C\[C@H](O)C[C@@]2(C)O[C@@H]2CC(C)(C)/C=C/C1=O | 62.5 µM | > 100 µM
4 | C/C1=C\[C@H](O)C[C@]2(C)O[C@@H]2CC(C)(C)/C=C/C1=O | 42.6 µM | > 100 µM
5 | CC(=O)O[C@@H]1[C@@H](OC(C)=O)[C@H](C)O[C@@H](Oc2c(-c3ccc(O)cc3)oc3cc(O)cc(O)c3c2=O)[C@@H]1OC(C)=O | 14.4 µM | 43.3 µM
6 | C/C1=C\CC[C@@]2(C)O[C@@H]2CC(C)(C)/C=C/C1=O [ZERUMBONE EPOXIDE] | 48.4 µM | > 100 µM
7 | C/C1=C\CC(C)(C)/C=C/C(=O)/C(C)=C/CC1 [ZERUMBONE] | 21.8 µM | > 100 µM

Now from value to compound:

Row | IC50 (Cytochrome P450 3A4) | IC50 (Cytochrome P450 2D6) | Structure (SMILES)
8 | 59 µM | > 100 µM | CC(=O)O[C@H]1[C@H](Oc2c(-c3ccc(O)cc3)oc3cc(O)cc(O)c3c2=O)O[C@@H](C)[C@H](O)[C@H]1O
9 | 55.8 µM | > 100 µM | CC(=O)O[C@@H]1[C@@H](O)[C@H](C)O[C@@H](Oc2c(-c3ccc(O)cc3)oc3cc(O)cc(O)c3c2=O)[C@@H]1OC(C)=O
10 | 98.3 µM | > 100 µM | CC(=O)O[C@@H]1[C@@H](O)[C@H](C)O[C@@H](Oc2c(-c3ccc(O)cc3)oc3cc(O)cc(O)c3c2=O)[C@@H]1O
11 | 31.6 µM | > 100 µM | CC(=O)O[C@@H]1[C@@H](O)[C@@H](OC(C)=O)[C@H](Oc2c(-c3ccc(O)cc3)oc3cc(O)cc(O)c3c2=O)O[C@H]1C
12 | 21.8 µM | 45.5 µM | COc1ccc(-c2oc3cc(O)cc(O)c3c(=O)c2OC)cc1 [ERMANIN]
13 | 36.2 µM | 4.63 µM | COc1c(-c2ccc(O)cc2)oc2cc(O)cc(O)c2c1=O [ISOKAEMPFERIDE]
14 | 77.7 µM | > 100 µM | CCCCC/C=C/C(=O)CCc1ccc(O)c(OC)c1 [SHOGAOL]
